The values that follow are results of earlier work, collected in patent US20080085243A1, “MOLECULAR MARKERS FOR D[…] RESPONSIVENESS” (SIGMA-ALDRICH COMPANY, priority 2006, published 2008).

The test system of this data set is late stage non-small cell lung cancer (NSCLC).

As to `CC(=O)O[C@H]1C(=O)[C@@]2(C)[C@H]([C@H](OC(=O)c3ccccc3)[C@]3(O)C[C@H](OC(=O)[C@H](O)[C@@H](NC(=O)c4ccccc4)c4ccccc4)C(C)=C1C3(C)C)[C@]1(OC(C)=O)CO[C@@H]1C[C@@H]2O` [paclitaxel], the “patients who respond therapeutically” value is on record as “about 20%”.
